Source: patent US20240409585A1, “MACROCYCLIC IMMUNOMODULATORS” (priority 2021, published 2024)
Bridge positions count the residues as written; N and C are the ends. Square brackets hold non-standard residues; d marks the D form. Peptide text beside a SMILES is read from it. * marks the point of attachment. Bip(4'-COOH) = N[C@@H](Cc1ccc(-c2ccc(C(=O)O)cc2)cc1)C(=O)O; Bip(4'-NHAc) = CC(=O)Nc1ccc(-c2ccc(C[C@H](N)C(=O)O)cc2)cc1; Phe(3-CF3) = N[C@@H](Cc1cccc(C(F)(F)F)c1)C(=O)O; Ala(morpholin-4-yl) = N[C@@H](CN1CCOCC1)C(=O)O; Phe(4-CONH2) = NC(=O)c1ccc(C[C@H](N)C(=O)O)cc1; Phe(4-COOH) = N[C@@H](Cc1ccc(C(=O)O)cc1)C(=O)O; Bip = N[C@@H](Cc1ccc(-c2ccccc2)cc1)C(=O)O; Phe(3-Me) = Cc1cccc(C[C@H](N)C(=O)O)c1; Aad = N[C@@H](CCCC(=O)O)C(=O)O; Cha = N[C@@H](CC1CCCCC1)C(=O)O; hSer = N[C@@H](CCO)C(=O)O; Carboxymethyl = O=C(O)C*; NMeA = CN[C@@H](C)C(=O)O; Orn = NCCC[C@H](N)C(=O)O; Dab = NCC[C@H](N)C(=O)O

target: T1, Alexa fluor-647 labeled human PD-L1-Ig binding to Jurkat cell line over-expressing human PD-1 (Homo sapiens, UniProt Q15116); test: Jurkat-PD-1 Cell Binding High-Content Screening Assay (CBA): Method 3 (Alexa fluor-647 labeled PD-L1-Ig); details: Jurkat-PD-1 cells, Alexa fluor-647 labeled PD-L1-Ig 177 nM; head μM; read-out: CBA Method 3 μM
T1 construct: expressed in transfected cells; host or cells: Jurkat
T1 sequence (Q15116 25-288): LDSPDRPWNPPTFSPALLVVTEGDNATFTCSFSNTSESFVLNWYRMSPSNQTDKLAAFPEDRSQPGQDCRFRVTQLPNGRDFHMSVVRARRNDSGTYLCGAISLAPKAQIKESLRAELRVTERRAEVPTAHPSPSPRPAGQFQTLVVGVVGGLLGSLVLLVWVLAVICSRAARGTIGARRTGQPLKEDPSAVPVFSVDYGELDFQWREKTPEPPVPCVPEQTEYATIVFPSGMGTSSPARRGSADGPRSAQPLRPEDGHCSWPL
How it was run: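 Readout by high-content imaging of PFA-fixed, Hoechst-stained cells after 1 h with 177 nM (final) Alexa fluor-647 PD-L1-Ig. Compound was added first to hPD-1 Jurkat cells in RPMI plus 10% FCS for 2 h at 37 °C.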

| SMILES | IC50 [µM] |
| --- | --- |
| Cc1cccc(C[C@@H]2NC(=O)[C@H](CC(=O)O)NC(=O)[C@H](Cc3ccc(C(=O)O)cc3)NC(=O)[C@H](CN3CCOCC3)NC(=O)CSC[C@@H](C(=O)N[C@@H](CCN)C(N)=O)NC(=O)[C@H](CCC(=O)O)NC(=O)[C@H](C(C)C)NC(=O)[C@H](CC3CCCCC3)NC(=O)[C@H](CCN)NC(=O)[C@@H](CC(C)C)NC(=O)[C@H](C)N(C)C(=O)[C@H](Cc3ccc(C(=O)O)cc3)NC(=O)[C@H](Cc3ccc(-c4ccccc4)cc3)NC(=O)[C@H](Cc3ccc(C(=O)O)cc3)NC2=O)c1 [Example 5259] ({CH2CO}-[Ala(morpholin-4-yl)][Phe(4-COOH)]D[Phe(3-Me)][Phe(4-COOH)][Bip][Phe(4-COOH)][NMeA][dL][Dab][Cha]VEC[Dab]-NH2; thioether N-14) | 0.01 |
| Cc1cccc(C[C@@H]2NC(=O)[C@H](CC(=O)O)NC(=O)[C@H](Cc3ccc(C(=O)O)cc3)NC(=O)[C@H](CN3CCOCC3)NC(=O)CSC[C@@H](C(=O)N[C@@H](CCN)C(N)=O)NC(=O)[C@H](CCC(N)=O)NC(=O)[C@H](C(C)C)NC(=O)[C@H](CC3CCCCC3)NC(=O)[C@H](CCN)NC(=O)[C@@H](CC(C)C)NC(=O)[C@H](C)N(C)C(=O)[C@H](Cc3ccc(C(=O)O)cc3)NC(=O)[C@H](Cc3ccc(-c4ccccc4)cc3)NC(=O)[C@H](Cc3ccc(C(=O)O)cc3)NC2=O)c1 [Example 5260] ({CH2CO}-[Ala(morpholin-4-yl)][Phe(4-COOH)]D[Phe(3-Me)][Phe(4-COOH)][Bip][Phe(4-COOH)][NMeA][dL][Dab][Cha]VQC[Dab]-NH2; thioether N-14) | 0.09 |
| COc1ccc(C[C@@H]2NC(=O)[C@H](CN3CCOCC3)NC(=O)CSC[C@@H](C(=O)N[C@@H](CCN)C(N)=O)NC(=O)[C@H](CCCN)NC(=O)[C@H](C(C)C)NC(=O)[C@H](CC3CCCCC3)NC(=O)[C@H](CCN)NC(=O)[C@@H](CC(C)C)NC(=O)[C@H](C)N(C)C(=O)[C@H](CCC(N)=O)NC(=O)[C@H](Cc3ccc(-c4ccccc4)cc3)NC(=O)[C@H](Cc3ccc(OCC(=O)O)cc3)NC(=O)[C@H](Cc3cccc(C(F)(F)F)c3)NC(=O)[C@H](CC(=O)O)NC2=O)cc1 [Example 5263] ({CH2CO}-[Ala(morpholin-4-yl)]Y(Me)D[Phe(3-CF3)]Y(Carboxymethyl)[Bip]Q[NMeA][dL][Dab][Cha]V[Orn]C[Dab]-NH2; thioether N-14) | 0.18 |

The remaining lines, values ahead:

| IC50 [µM] | SMILES |
| --- | --- |
| 0.11 | CC(C)C[C@H]1NC(=O)[C@H](C)N(C)C(=O)[C@H](Cc2ccc(C(N)=O)cc2)NC(=O)[C@H](Cc2ccc(-c3ccccc3)cc2)NC(=O)[C@H](Cc2ccc(OCC(=O)O)cc2)NC(=O)[C@H](Cc2cccc(C(F)(F)F)c2)NC(=O)[C@H](CC(=O)O)NC(=O)[C@H](Cc2ccc(O)cc2)NC(=O)[C@H](CN2CCOCC2)NC(=O)CSC[C@@H](C(=O)N[C@@H](CCN)C(N)=O)NC(=O)[C@H](CCCN)NC(=O)[C@H](C(C)C)NC(=O)[C@H](CC2CCCCC2)NC(=O)[C@H](CCN)NC1=O [Example 5262] ({CH2CO}-[Ala(morpholin-4-yl)]YD[Phe(3-CF3)]Y(Carboxymethyl)[Bip][Phe(4-CONH2)][NMeA][dL][Dab][Cha]V[Orn]C[Dab]-NH2; thioether N-14) |
| 0.06 | Cc1cccc(C[C@@H]2NC(=O)[C@H](CC(=O)O)NC(=O)[C@H](Cc3ccc(O)cc3)NC(=O)[C@H](CN3CCOCC3)NC(=O)CSC[C@@H](C(=O)N[C@@H](CCN)C(N)=O)NC(=O)[C@H](CCC(=O)O)NC(=O)[C@H](CCO)NC(=O)[C@H](CC3CCCCC3)NC(=O)[C@H](CCN)NC(=O)[C@@H](CC(C)C)NC(=O)[C@H](C)N(C)C(=O)[C@H](CCC(N)=O)NC(=O)[C@H](Cc3ccc(-c4ccccc4)cc3)NC(=O)[C@H](Cc3ccc(OCC(=O)O)cc3)NC2=O)c1 [Example 5261] ({CH2CO}-[Ala(morpholin-4-yl)]YD[Phe(3-Me)]Y(Carboxymethyl)[Bip]Q[NMeA][dL][Dab][Cha][hSer]EC[Dab]-NH2; thioether N-14) |
| 0.03 | CC(=O)Nc1ccc(-c2ccc(C[C@@H]3NC(=O)[C@H](Cc4cccc(C)c4)NC(=O)[C@H](CC(=O)O)NC(=O)[C@H](Cc4ccc(C(=O)O)cc4)NC(=O)[C@H](CN4CCOCC4)NC(=O)CSC[C@@H](C(=O)N[C@@H](CCN)C(N)=O)NC(=O)[C@H](CCCC(N)=O)NC(=O)[C@H](C(C)C)NC(=O)[C@H](CC4CCCCC4)NC(=O)[C@H](CCN)NC(=O)[C@@H](CC(C)C)NC(=O)[C@H](C)N(C)C(=O)[C@H](Cc4ccc(C(=O)O)cc4)NC(=O)[C@H](Cc4ccc(-c5ccccc5)cc4)NC3=O)cc2)cc1 [Example 5257] ({CH2CO}-[Ala(morpholin-4-yl)][Phe(4-COOH)]D[Phe(3-Me)][Bip(4'-NHAc)][Bip][Phe(4-COOH)][NMeA][dL][Dab][Cha]V[Aad](NH2)C[Dab]-NH2; thioether N-14) |
| 0.0022 | CC(=O)Nc1ccc(-c2ccc(C[C@@H]3NC(=O)[C@H](Cc4cccc(C)c4)NC(=O)[C@H](CC(=O)O)NC(=O)[C@H](Cc4ccc(C(=O)O)cc4)NC(=O)[C@H](CN4CCOCC4)NC(=O)CSC[C@@H](C(=O)N[C@@H](CCN)C(N)=O)NC(=O)[C@H](CCCC(=O)O)NC(=O)[C@H](C(C)C)NC(=O)[C@H](CC4CCCCC4)NC(=O)[C@H](CCN)NC(=O)[C@@H](CC(C)C)NC(=O)[C@H](C)N(C)C(=O)[C@H](Cc4ccc(C(=O)O)cc4)NC(=O)[C@H](Cc4ccc(-c5ccccc5)cc4)NC3=O)cc2)cc1 [Example 5255] ({CH2CO}-[Ala(morpholin-4-yl)][Phe(4-COOH)]D[Phe(3-Me)][Bip(4'-NHAc)][Bip][Phe(4-COOH)][NMeA][dL][Dab][Cha]V[Aad]C[Dab]-NH2; thioether N-14) |

same assay, conditions: Jurkat-PD-1 cells, Alexa fluor-647 labeled PD-L1-Ig 177 nM; nM; read-out: CBA Method 3

| IC50 [µM] | SMILES |
| --- | --- |
| 0.0028 | CC(=O)Nc1ccc(-c2ccc(C[C@@H]3NC(=O)[C@H](Cc4cccc(C)c4)NC(=O)[C@H](CC(=O)O)NC(=O)[C@H](Cc4ccc(-c5ccc(C(=O)O)cc5)cc4)NC(=O)[C@H](CN4CCOCC4)NC(=O)CSC[C@@H](C(=O)N[C@@H](CCN)C(N)=O)NC(=O)[C@H](CCC(=O)O)NC(=O)[C@H](C(C)C)NC(=O)[C@H](CC4CCCCC4)NC(=O)[C@H](Cc4cnc[nH]4)NC(=O)[C@@H](CC(C)C)NC(=O)[C@H](C)N(C)C(=O)[C@H](Cc4ccc(C(=O)O)cc4)NC(=O)[C@H](Cc4ccc(-c5ccccc5)cc4)NC3=O)cc2)cc1 [Example 5253] ({CH2CO}-[Ala(morpholin-4-yl)][Bip(4'-COOH)]D[Phe(3-Me)][Bip(4'-NHAc)][Bip][Phe(4-COOH)][NMeA][dL]H[Cha]VEC[Dab]-NH2; thioether N-14) |
| 0.0013 | Cc1cccc(C[C@@H]2NC(=O)[C@H](CC(=O)O)NC(=O)[C@H](Cc3ccc(C(=O)O)cc3)NC(=O)[C@H](CN3CCOCC3)NC(=O)CSC[C@@H](C(=O)N[C@@H](CCN)C(N)=O)NC(=O)[C@H](CCC(=O)O)NC(=O)[C@H](C(C)C)NC(=O)[C@H](CC3CCCCC3)NC(=O)[C@H](Cc3cnc[nH]3)NC(=O)[C@@H](CC(C)C)NC(=O)[C@H](C)N(C)C(=O)[C@H](Cc3ccc(C(=O)O)cc3)NC(=O)[C@H](Cc3ccc(-c4ccccc4)cc3)NC(=O)[C@H](Cc3ccc(C(=O)O)cc3)NC2=O)c1 [Example 5254] ({CH2CO}-[Ala(morpholin-4-yl)][Phe(4-COOH)]D[Phe(3-Me)][Phe(4-COOH)][Bip][Phe(4-COOH)][NMeA][dL]H[Cha]VEC[Dab]-NH2; thioether N-14) |
